Measurements published in patent US20220153746A1, “NITROGEN OXIDE-DONATING PDE-5 AND/OR PDE-6 INHIBITOR COMPOUNDS, AND USES THEREOF” (ILDONG PHARMACEUTICAL CO., LTD., priority 2020, published 2022).
Where “and” joins values, the source holds several entries; their conditions need not be identical. Equal values may be shown once.

Assay: TD Phase (Groups 1 and 3): plasma and ocular tissue concentrations and pharmacokinetics of Compound 18 and its metabolite Compound 4 after once daily ocular instillation of Compound 18 nanosuspension for 7 days
Format: in vivo, New Zealand white rabbits
Settings: for Compound 18 Lens Homogenate Conc.: homogenate dilution factor 5; for Compound 18 Iris/Ciliary Body Homogenate Conc. / Compound 18 Optic Nerve Homogenate Conc. / Compound 18 Retina Homogenate Conc. / Compound 18 Trahecular Meshwork Homogenate Conc.: homogenate dilution factor 20; for Cornea homogenate concentration: homogenate dilution factor 15
Source text: This example illustrates the procedures and results for the levels of Compound 18 and its metabolite Compound 4 in plasma and ocular tissues of normotensive rabbits following ocular instillation of Compound 18 once daily for 7 consecutive days.
Twenty five (25) male New Zealand white rabbits were divided into 5 groups of varying amounts of animals per group.
The Test article, Compound 18 was formulated as a 2% nanosuspension in DI water containing 0.2% PS80 (polyoxyethylenesorbitan, monooleate (Tween 80)) and 0.4% HPMC (hydroxypropylmethylcellulose) at pH 6.77. Referred to herein as “Compound 18 nanosuspension.”
The study consisted of three groups (Groups 1-3) of 19 male rabbits (NZW) that underwent once daily morning ocular installation (1 eyedrop) for 7 consecutive days (Day 0-6). Groups 4-5 each consisted of 3 male rabbits (NZW) that were not dosed.
Blood samples (1 mL) were collected from the jugular vein at the intervals set out below for each group. The samples were then inverted several times following collection and held on wet ice until centrifuged. Samples were centrifuged within 60 minutes of collection under refrigeration (set at 5° C. for 10 minutes at 2000 g.
Group 1 (Pilot Study, terminal blood collection): blood was collected from 3 animals at 1 hour post day 7 dose of Compound 18 nanosuspension.
Group 3 (TD Phase, terminal blood collection): blood was collected from 3 animals at 0.5 hour, 3 animals at 2 hours, 3 animals at 4 hours, and 3 animals at 8 hours post day 7 dose of Compound 18 nanosuspension.
(§1) Group 1 (Pilot Study): 3 animals were terminated at 1 hour post Day 7 dose of Compound 18 nanosuspension. Following blood collection and termination, ocular tissues (aqueous humor, vitreous humor, cornea, iris/ciliary body, lens, optic nerve, retina, sclera/choroid, and trabecular meshwork) were collected from each animal and the tissue weights were recorded. Note: sclera and choroid were collected together. Iris and ciliary body were collected together.
as §1, with “3 (TD Phase):” for “1 (Pilot Study):”, “0.5 hour, 3 animals at 2 hours, 3 animals at 4 hours, and 3 animals at 8 hours” for “1 hour”
Plasma and tissue samples from treated animals (Groups 1-3) were analyzed for Compound 18 and its metabolite Compound 4 concentrations by LC-MS/MS.
Pharmacokinetic analysis was conducted using WinNonlin Version 6.2.1 (Pharsight, Mountain View, Calif.), operating as a validated software system. Noncompartmental analysis was conducted using the extravascular administration model for ocular instillation dosing.
The peak plasma and ocular tissue concentration, time to achieve peak plasma and ocular tissue concentration, half-life, and area under the plasma and ocular tissue concentration-time curve (Cmax, Tmax, T1/2, and AUC) were calculated from the TD phase combined with the pilot study mean animal plasma and ocular tissue concentrations for each sampling time/dose group for Compound 18 and its metabolite Compound 4.
BA Assay: Quantitation Range 0.05 to 100 ng/mL for Compound 18, 0.15 to 100 ng/mL for Compound 4.
3. Pipet 50 μL of each type of pre-spiked ocular tissue samples (AH/VH) for QC samples, 50 μL of incurred aqueous humor, and vitreous humor sample (if applicable) into a 96 well plate.
Ocular Tissues Homogenate Preparation: Incurred rabbit ocular tissues were weighed in Genogrinder tubes (plastic tubes with small beads) at the time of removal from the animal and stored frozen (<−70° C.) until analysis. The rabbit incurred ocular tissues were thawed on wet ice. […]

[1] = TD Phase, Group 1, 1 h, individual animals
[2] = TD Phase, Group 1, 1 h, individual animals, BQL set to 0
[3] = TD Phase, Group 3, 0.5 h, individual animals
[4] = TD Phase, Group 3, 0.5 h, individual animals, BQL set to 0
[5] = TD Phase, Group 3, 2 h, individual animals
[6] = TD Phase, Group 3, 2 h, individual animals, BQL set to 0

CCCc1nn(C)c2c(=O)[nH]c(-c3cc(S(=O)(=O)N4CC(CCCO[N+](=O)[O-])C4)ccc3OCC)nc12 [Compound 18, 3-(1-((4-ethoxy-3-(1-methyl-7-oxo-3-propyl-6,7-dihydro-1H-pyrazolo[4,3-d]pyrimidin-5-yl)phenyl)sulfonyl)azetidin-3-yl)propyl nitrate]
AUC0-8 (Iris/Ciliary Body, Day 7, Compound 18 0.8 mg/kg ocular instillation once daily, Groups 1 and 3): 150 ng·h/g
Compound 18 Vitreous Humor Conc. (TD Phase, Group 1, 1 h, Mean, BQL set to 0): BQL (BQL = Below lower limit of quantitation (0.0500 ng/mL for Compound 18)
Compound 18 Aqueous Humor Conc. [1]: BQL (BQL = Below lower limit of quantitation (0.0500 ng/mL for Compound 18)
Compound 18 Plasma Conc. [1]: BQL^a (BQL = Below lower limit of quantitation (0.0500 ng/mL for Compound 18) and 0.0581 ng/mL
Compound 18 Vitreous Humor Conc. [1]: BQL (BQL = Below lower limit of quantitation (0.0500 ng/mL for Compound 18)
Final Compound 18 Optic Nerve Conc. [1]: 192 ng/g and 266 ng/g
Final Compound 18 Iris/Ciliary Body Conc. [2]: 0 ng/g and 18.7 ng/g and 302 ng/g
Final Compound 18 Lens Conc. [2]: 0 ng/g
Final Compound 18 Retina Conc. [2]: 6.24 ng/g and 20.2 ng/g and 27.8 ng/g
Compound 18 Lens Homogenate Conc. [1]: BQL (BQL = Below lower limit of quantitation (0.0500 ng/mL for Compound 18)
Compound 18 Iris/Ciliary Body Homogenate Conc. [1]: BQL (BQL = Below lower limit of quantitation (0.0500 ng/mL for Compound 18) and 0.934 ng/mL and 15.1 ng/mL
Compound 18 Optic Nerve Homogenate Conc. [1]: 9.59 ng/mL and 13.3 ng/mL
Compound 18 Retina Homogenate Conc. [1]: 0.312 ng/mL and 1.01 ng/mL and 1.39 ng/mL
Compound 18 Trahecular Meshwork Homogenate Conc. [1]: BQL (BQL = Below lower limit of quantitation (0.0500 ng/mL for Compound 18)
Compound 18 Aqueous Humor Conc. (TD Phase, Group 3, 0.5 h, Mean, BQL set to 0): BQL (BQL = Below lower limit of quantitation (0.0500 ng/mL for Compound 18)
Compound 18 Aqueous Humor Conc. [3]: BQL^a (BQL = Below lower limit of quantitation (0.0500 ng/mL for Compound 18)
Compound 18 Plasma Conc. [3]: 0.627 ng/mL and 0.0972 ng/mL and 0.0599 ng/mL
Compound 18 Vitreous Humor Conc. [3]: BQL^a (BQL = Below lower limit of quantitation (0.0500 ng/mL for Compound 18)
Final Compound 18 Optic Nerve Conc. [3]: 116 ng/g and 30.4 ng/g and 183 ng/g
Final Compound 18 Sclera/Choroid Conc. [3]: 88.8 ng/g and 47.2 ng/g and 186 ng/g
Final Compound 18 Iris/Ciliary Body Conc. [4]: 2.24 ng/g and 0 ng/g and 268 ng/g
Final Compound 18 Lens Conc. [4]: 0 ng/g (2×) and 6.35 ng/g
Final Compound 18 Retina Conc. [4]: 20.2 ng/g and 29.8 ng/g
Compound 18 Lens Homogenate Conc. [3]: BQL^1 (BQL = Below lower limit of quantitation (0.0500 ng/mL for Compound 18)
Compound 18 Sclera/Choroid Homogenate Conc. (TD Phase, Group 3, 0.5 h, individual animals, homogenate dilution factor 8): 11.1 ng/mL and 5.90 ng/mL and 23.3 ng/mL
Cornea homogenate concentration [3]: BQL^a (BQL = Below lower limit of quantitation (0.0500 ng/mL for Compound 18)
Compound 18 Iris/Ciliary Body Homogenate Conc. [3]: 0.112 ng/mL and BQL^a (BQL = Below lower limit of quantitation (0.0500 ng/mL for Compound 18) and 13.4 ng/mL
Compound 18 Optic Nerve Homogenate Conc. [3]: 5.79 ng/mL and 1.52 ng/mL and 9.17 ng/mL
Compound 18 Retina Homogenate Conc. [3]: 1.01 ng/mL and 1.49 ng/mL
Compound 18 Trahecular Meshwork Homogenate Conc. [3]: BQL^a (BQL = Below lower limit of quantitation (0.0500 ng/mL for Compound 18)
Compound 18 Aqueous Humor Conc. (TD Phase, Group 3, 2 h, Mean, BQL set to 0): BQL (BQL = Below lower limit of quantitation (0.0500 ng/mL for Compound 18)
Compound 18 Aqueous Humor Conc. [5]: BQL (BQL = Below lower limit of quantitation (0.0500 ng/mL for Compound 18)
Compound 18 Plasma Conc. [5]: BQL (BQL = Below lower limit of quantitation (0.0500 ng/mL for Compound 18)
Compound 18 Vitreous Humor Conc. [5]: BQL (BQL = Below lower limit of quantitation (0.0500 ng/mL for Compound 18)
Final Compound 18 Optic Nerve Conc. [5]: 24.4 ng/g and 1030 ng/g and 79.0 ng/g
Final Compound 18 Iris/Ciliary Body Conc. [6]: 1.27 ng/g and 15.4 ng/g and 0 ng/g
Final Compound 18 Lens Conc. [6]: 0 ng/g
Final Compound 18 Retina Conc. [6]: 31.5 ng/g and 69.4 ng/g and 3.40 ng/g
Compound 18 Lens Homogenate Conc. [5]: BQL (BQL = Below lower limit of quantitation (0.0500 ng/mL for Compound 18)
Cornea homogenate concentration [5]: BQL (BQL = Below lower limit of quantitation (0.0500 ng/mL for Compound 18)
Compound 18 Iris/Ciliary Body Homogenate Conc. [5]: 0.0637 ng/mL and 0.772 ng/mL and BQL (BQL = Below lower limit of quantitation (0.0500 ng/mL for Compound 18)
Compound 18 Optic Nerve Homogenate Conc. [5]: 1.22 ng/mL and 51.5 ng/mL and 3.95 ng/mL
